These results are taken from PMC10108347, “Heterobifunctional Ligase Recruiters Enable pan-Degradation of Inhibitor of Apoptosis Proteins” (Journal of Medicinal Chemistry, 2023).

In data set [1] the test system is IAPs (cIAP1, cIAP2, XIAP). As to the kind of experiment: Immunoblotting of IAPs in MM.1S cells, overall degradation profile, time course and washout. In kind it is cell-based. The note with it: 16 h, western blot, concentration (10 nM to 1 μM). As for the experimental part: Next, we examined the persistence of IAP degradation in MM.1S cells after a single exposure to 1 μM of 9 and subsequent removal of the compound. […] The reliance on CRL2^VHL was assessed with a neddylation inhibitor MLN4924, which blocks the activity of CRLs (Figure S13A).
In general terms: In western blotting, separated proteins are transferred to a membrane and probed.

Data set [2] has as its target T1, plasma protein (HSA column) (Homo sapiens, UniProt P02768).
T1 construct: purchased
As to the kind of experiment: Plasma protein binding estimated by HPLC on a […] HSA column. In kind it is in vitro ADME. The note with it: CHIRALPAK HSA column (50 × 3 mm, 5 μm), estimated by an HPLC-based method, read-out: PPB (plasma protein binding) (converted). As for the experimental part: Plasma protein binding (% PPB) was estimated by correlating the logarithmic retention times of the analytes on a […] HSA 50 × 3 mm, 5 μm column with the literature-known % PPB values (converted into log K values) of the following drugs: warfarin, ketoprofen, budesonide, nizatidine, indomethacin, acetylsalicylic acid, carbamazepine, piroxicam, nicardipine, and cimetidine (for details, see Valko et al.).[67] The samples were dissolved in MeCN/DMSO 9:1 to achieve a final concentration of 0.5 mg/mL. Mobile phase A was 50 mM ammonium acetate adjusted to pH 7.4 with ammonia solution, while mobile phase B was iPrOH. The flow rate was set to 1.0 mL/min, the UV detector was set to 254 nm, and the column temperature was kept at 30 °C. After injecting 2 μL of the sample, a linear gradient from 100% A to 30% iPrOH in 5.4 min was applied. From 5.4 to 18 min, 30% iPrOH was kept, followed by switching back to 100% A in 1.0 min and a re-equilibration time of 6 min. With the aid of the calibration line (R^2 = 0.96), the log K values of new substances were calculated and converted to their % PPB values.

Data set [3] is described as follows: Log D7.4 measurement by chromatographic (fast-gradient HPLC) method. The following applies: pH 7.4.
Method: The system was calibrated by plotting the retention times of six different drugs (atenolol, metoprolol, labetalol, diltiazem, triphenylene, and permethrin) versus their literature-known log D7.4 in a calibration line (R^2 = 0.99). Subsequently, the mean retention times of the analytes were taken to calculate their log D7.4 values with the aid of the calibration line. At least two independent measurements of each analyte were performed.
For data set [4], the target named is XIAP (Homo sapiens, UniProt P98170). As to the kind of experiment: Immunoblotting (western blot) quantification of XIAP levels in MM.1S cells. The following applies: 16 h; for remaining activity at 0.1 µM: MM1.S, read-out: %remaining protein XIAP, MM.1S cells, 16 h treatment at 0.1 μM, normalized to loading control and DMSO.
Data set [5] addresses CRBN (Homo sapiens, UniProt Q96SW2). As to the kind of experiment: Immunoblotting (western blot) quantification of CRBN levels in MM.1S cells. The note with it: MM1.S, 16 h, read-out: %remaining protein CRBN.
Method: (§3) To evaluate the capability of our panel of hetero-PROTACs for E3 ligase degradation, VHL19, VHL30, CRBN, cIAP1, cIAP2, and XIAP levels were quantified by western blot analyses. […] SDS-PAGE was performed, and proteins were then transferred onto PVDF membranes. Blotted membranes were blocked with 5% milk in Tris-buffered saline/Tween20 (TBST). Primary antibodies were diluted in 5% BSA in TBST, and incubations were performed overnight at 4 °C. Secondary HRP-conjugated antibodies diluted in 5% milk were incubated for 1 h at room temperature. Detection of proteins on PVDF was carried out using the WesternBright ECL HRP substrate or the WesternBright Sirius HRP substrate (Advansta, San Jose, USA) and imaged with LAS 4000× (Fujifilm). Membranes were subjected to 10 min incubation with Restore Western Blot Stripping Buffer (Thermo Fisher Scientific, Waltham, USA), followed by TBST washes. After brief re-activation with methanol, the membranes were blocked, and further probing of proteins was carried out.
(§4) Quantification of blots was performed using ImageJ software (National Institutes of Health).
Data set [6] addresses cIAP1 (Homo sapiens, UniProt Q13490). As to the kind of experiment: Immunoblotting (western blot) quantification of cIAP1 levels in MM.1S cells. The note with it: MM1.S, 16 h, read-out: %remaining protein cIAP1, MM.1S cells, 16 h treatment at 0.1 μM, normalized to loading control and DMSO.
Data set [7] concerns the target cIAP2 (Homo sapiens, UniProt Q13489). As to the kind of experiment: Immunoblotting (western blot) quantification of cIAP2 levels in MM.1S cells. The following applies: for remaining activity at 0.1 µM: MM1.S, read-out: %remaining protein cIAP2, MM.1S cells, 16 h treatment at 0.1 μM, normalized to loading control and DMSO.
Data set [8] deals with IKZF3. As to the kind of experiment: Immunoblotting (western blot) quantification of IKZF3 levels in MM.1S cells. The note with it: for %remaining protein IKZF3: 16 h treatment at 0.1 μM, normalized to loading control and DMSO.
Method: as §3, §4
Data set [9] has as its system RPMI-8826. As to the kind of experiment: CellTiter-Glo cell viability assay, RPMI-8826. The class given is cell-based. The protocol: (§1) As TNF-α and related signaling cascades represent crucial factors for the single-agent activity of IAP-targeting compounds,[29],[38],[39],[55] the viability inhibition of sensitive cell lines was evaluated in the presence and absence of this inflammatory stimulus. […] These effects were independent of IAP baseline levels (Figure S16), which is in agreement with the previous studies of IAP antagonists.
(§2) Cells were seeded in 384-well plates with respective treatments, and plates were incubated at 37 °C for 96 h. Viability assays were performed with or without the addition of TNF-α at 1 ng/mL. The cell viability readout was measured using the CellTiter-Glo Luminescent Cell Viability Assay (Promega, Madison, USA) and measured with a Synergy LX Multi-Mode plate reader (BioTek, Vermont, USA). All conditions were normalized to the DMSO-treated control. Data represents the mean ± SD of biological triplicates.
Background: Cellular ATP, detected with luciferase, serves as a proxy for viable cell number.

The subject of data set [10] is JJN3. As to the kind of experiment: CellTiter-Glo cell viability assay, JJN3. In kind it is cell-based. The protocol:
as §1, §2

Data set [11] concerns NCI-H929. As to the kind of experiment: CellTiter-Glo cell viability assay, NCI-H929. The class given is cell-based. The protocol:
as §1, §2

For data set [12], the system named is HEL. As to the kind of experiment: CellTiter-Glo cell viability assay, HEL. The class given is cell-based. The protocol:
as §1, §2

Data set [13] concerns K562. As to the kind of experiment: CellTiter-Glo cell viability assay, K562. The class given is cell-based. As for the experimental part:
as §1, §2

Data set [14] has as its system MOLM13. As to the kind of experiment: CellTiter-Glo cell viability assay, MOLM13. The class given is cell-based. The protocol: as §1, §2
Data set [15] has as its system SUDHL4. As to the kind of experiment: CellTiter-Glo cell viability assay, SUDHL4. The class given is cell-based. The protocol: as §1, §2
The subject of data set [16] is DB. As to the kind of experiment: CellTiter-Glo cell viability assay, DB. In kind it is cell-based. As for the experimental part:
as §1, §2

The subject of data set [17] is SUDHL6. As to the kind of experiment: CellTiter-Glo cell viability assay, SUDHL6. The class given is cell-based. The protocol:
as §1, §2

Entries after “also recorded” stand apart in the source; their conditions may differ. Read-outs that look alike come from different tables or passages of the source.

Sequence of XIAP (P98170 whole entry): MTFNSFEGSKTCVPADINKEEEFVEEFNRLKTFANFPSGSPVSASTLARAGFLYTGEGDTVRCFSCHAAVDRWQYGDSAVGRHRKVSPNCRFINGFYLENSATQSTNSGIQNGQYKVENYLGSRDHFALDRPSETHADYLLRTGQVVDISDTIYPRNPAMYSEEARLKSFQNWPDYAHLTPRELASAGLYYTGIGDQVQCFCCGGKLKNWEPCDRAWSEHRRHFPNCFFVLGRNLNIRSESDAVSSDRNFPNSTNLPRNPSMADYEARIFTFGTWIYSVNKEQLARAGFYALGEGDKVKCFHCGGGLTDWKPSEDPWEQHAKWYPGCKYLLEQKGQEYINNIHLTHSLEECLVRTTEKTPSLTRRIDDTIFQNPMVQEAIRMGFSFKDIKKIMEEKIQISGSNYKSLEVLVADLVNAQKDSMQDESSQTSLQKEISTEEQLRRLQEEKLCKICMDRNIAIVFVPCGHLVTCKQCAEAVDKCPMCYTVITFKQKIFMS
Sequence of cIAP2 (Q13489 whole entry): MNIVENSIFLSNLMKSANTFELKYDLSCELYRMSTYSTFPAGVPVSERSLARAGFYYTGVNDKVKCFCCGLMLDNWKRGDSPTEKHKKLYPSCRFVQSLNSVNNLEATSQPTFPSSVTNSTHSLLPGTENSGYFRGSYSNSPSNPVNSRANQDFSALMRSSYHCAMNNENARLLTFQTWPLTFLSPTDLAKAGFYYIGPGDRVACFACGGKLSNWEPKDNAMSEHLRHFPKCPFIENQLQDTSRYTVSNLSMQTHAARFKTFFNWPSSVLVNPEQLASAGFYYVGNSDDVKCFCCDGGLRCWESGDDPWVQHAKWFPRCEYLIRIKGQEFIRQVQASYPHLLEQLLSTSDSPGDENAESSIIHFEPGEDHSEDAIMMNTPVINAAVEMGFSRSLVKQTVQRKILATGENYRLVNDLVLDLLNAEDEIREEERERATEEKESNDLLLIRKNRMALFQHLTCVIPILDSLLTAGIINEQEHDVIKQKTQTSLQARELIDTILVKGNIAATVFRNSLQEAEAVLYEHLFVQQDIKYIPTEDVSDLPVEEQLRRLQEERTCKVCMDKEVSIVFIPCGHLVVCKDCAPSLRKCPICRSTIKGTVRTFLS
T1 sequence (P02768 25-609): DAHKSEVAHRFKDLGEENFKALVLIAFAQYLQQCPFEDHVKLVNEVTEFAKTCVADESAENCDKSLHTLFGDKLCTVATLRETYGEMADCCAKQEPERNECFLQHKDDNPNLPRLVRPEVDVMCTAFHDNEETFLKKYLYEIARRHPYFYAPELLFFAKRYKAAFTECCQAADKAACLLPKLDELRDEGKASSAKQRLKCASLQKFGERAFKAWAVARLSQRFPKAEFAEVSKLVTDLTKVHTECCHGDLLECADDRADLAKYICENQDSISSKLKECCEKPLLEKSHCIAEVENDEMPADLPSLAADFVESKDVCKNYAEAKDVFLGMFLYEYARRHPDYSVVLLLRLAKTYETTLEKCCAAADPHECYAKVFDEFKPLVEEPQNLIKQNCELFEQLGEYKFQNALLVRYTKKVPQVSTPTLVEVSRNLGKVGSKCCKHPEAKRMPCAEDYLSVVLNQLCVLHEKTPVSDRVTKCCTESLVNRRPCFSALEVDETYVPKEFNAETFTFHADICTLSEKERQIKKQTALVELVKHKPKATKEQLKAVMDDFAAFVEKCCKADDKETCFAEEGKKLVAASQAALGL
Sequence of cIAP1 (Q13490 whole entry): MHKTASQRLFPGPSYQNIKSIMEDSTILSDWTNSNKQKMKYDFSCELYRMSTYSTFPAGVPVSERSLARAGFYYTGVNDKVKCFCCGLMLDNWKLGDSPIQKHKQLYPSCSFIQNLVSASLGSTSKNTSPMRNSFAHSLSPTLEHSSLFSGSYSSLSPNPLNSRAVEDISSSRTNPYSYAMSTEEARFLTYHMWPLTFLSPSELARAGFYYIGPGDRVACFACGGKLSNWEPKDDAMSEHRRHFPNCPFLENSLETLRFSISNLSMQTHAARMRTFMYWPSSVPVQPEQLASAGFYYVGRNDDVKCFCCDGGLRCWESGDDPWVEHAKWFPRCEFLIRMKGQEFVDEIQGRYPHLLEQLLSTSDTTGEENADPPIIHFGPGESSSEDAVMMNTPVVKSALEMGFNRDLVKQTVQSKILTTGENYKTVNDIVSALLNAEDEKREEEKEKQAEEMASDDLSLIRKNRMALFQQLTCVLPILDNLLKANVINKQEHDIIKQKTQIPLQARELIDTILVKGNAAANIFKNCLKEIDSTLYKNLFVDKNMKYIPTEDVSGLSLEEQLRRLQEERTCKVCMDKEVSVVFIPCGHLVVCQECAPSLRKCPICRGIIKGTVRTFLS
Sequence of CRBN (Q96SW2 whole entry): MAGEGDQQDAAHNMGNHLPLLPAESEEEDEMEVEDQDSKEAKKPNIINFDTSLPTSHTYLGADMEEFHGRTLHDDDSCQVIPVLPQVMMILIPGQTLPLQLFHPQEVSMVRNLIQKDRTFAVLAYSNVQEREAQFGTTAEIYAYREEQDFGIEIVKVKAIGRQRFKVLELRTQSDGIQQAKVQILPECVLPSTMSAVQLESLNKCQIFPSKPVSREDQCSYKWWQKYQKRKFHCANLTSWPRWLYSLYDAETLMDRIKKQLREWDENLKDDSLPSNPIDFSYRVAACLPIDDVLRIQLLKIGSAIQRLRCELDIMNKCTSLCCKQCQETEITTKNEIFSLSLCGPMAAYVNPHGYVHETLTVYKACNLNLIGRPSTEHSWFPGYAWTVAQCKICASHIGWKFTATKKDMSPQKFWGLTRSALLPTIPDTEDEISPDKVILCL

`CN[C@@H](C)C(=O)N[C@H](C(=O)N1C[C@@H](Oc2cccc(OCCCCOCCCCNc3cccc4c3C(=O)N(C3CCC(=O)NC3=O)C4=O)c2)C[C@H]1C(=O)N[C@@H]1CCCc2ccccc21)C1CCCCC1` (stereo partly drawn) [PROTAC 22, (2S,4S)-1-((S)-2-Cyclohexyl-2-((S)-2-(methylamino)propanamido)acetyl)-4-(3-(4-(4-((2-(2,6-dioxopiperidin-3-yl)-1,3-dioxoisoindolin-4-yl)amino)butoxy)butoxy)phenoxy)-N-((R)-1,2,3,4-tetrahydronaphthalen-1-yl)pyrrolidine-2-carboxamide]: the “IAP degradation profile (in words)” value in [1] is recorded as “pronounced pan-IAP depletion”. Besides, the fraction unbound at 0.5 mg/mL in [2] is 0.04. The chromatographic logD (commonly a lipophilicity value derived from retention on a column) in [3] came out at 4.9. For the same molecule, the remaining activity at 0.1 µM came to 2% in [4], 77% in data set [5], 3% in [6] and 7% in data set [7] (16 h). In [8] (16 h, 1 μM), the “IKZF3 degradation (in words)” value is given as “substantial IKZF3 degradation at 1 μM”. In addition, the “%remaining protein IKZF3” value in data set [8] stood at 61%. Further, the IKZF3 degraded entry in data set [8] (16 h treatment, 0.1 μM) is recorded as “approximately 40%”.

`CN[C@@H](C)C(=O)N[C@H](C(=O)N1C[C@@H](Oc2cccc(OCCOCCOCCOCCNc3cccc4c3C(=O)N(C3CCC(=O)NC3=O)C4=O)c2)C[C@H]1C(=O)N[C@@H]1CCCc2ccccc21)C1CCCCC1` (stereo partly drawn) [PROTAC 24, (2S,4S)-1-((S)-2-Cyclohexyl-2-((S)-2-(methylamino)propanamido)acetyl)-4-(3-(2-(2-(2-(2-((2-(2,6-dioxopiperidin-3-yl)-1,3-dioxoisoindolin-4-yl)amino)ethoxy)ethoxy)ethoxy)ethoxy)phenoxy)-N-((R)-1,2,3,4-tetrahydronaphthalen-1-yl)pyrrolidine-2-carboxamide]: in [2], the fraction unbound at 0.5 mg/mL is 0.06. The chromatographic logD in data set [3] came out at 3.9. The remaining activity at 0.1 µM was 2% in data set [4], 86% in [5], 4% in [6] and 8% in [7] (16 h). Moreover, in data set [8], the “%remaining protein IKZF3” value is given as 95%.

On to `CN[C@@H](C)C(=O)N[C@H](C(=O)N1C[C@@H](Oc2cccc(OCCOCCCCCCOCCCCCCNc3cccc4c3C(=O)N(C3CCC(=O)N(C)C3=O)C4=O)c2)C[C@H]1C(=O)N[C@@H]1CCCc2ccccc21)C1CCCCC1` (stereo partly drawn) [PROTAC 28, (2S,4S)-1-((S)-2-Cyclohexyl-2-((S)-2-(methylamino)propanamido)acetyl)-4-(3-(2-((6-((6-((2-(1-methyl-2,6-dioxopiperidin-3-yl)-1,3-dioxoisoindolin-4-yl)amino)hexyl)oxy)hexyl)oxy)ethoxy)phenoxy)-N-((R)-1,2,3,4-tetrahydronaphthalen-1-yl)pyrrolidine-2-carboxamide], for which the IC50 was 1010 nM in data set [9] (SI csv, head prints only the cell line, no quantity or unit, values parallel Table 1/S8, read-out: RPMI-8826); 900 nM in [10] (Homo sapiens, JJN-3, SI csv, head prints only the cell line, no quantity or unit, values parallel Table 1/S8, read-out: JJN3); 1990 nM in [11] (Homo sapiens, SI csv, head prints only the cell line, no quantity or unit, values parallel Table 1/S8, read-out: NCI-H929); 770 nM in data set [12] (Homo sapiens, SI csv, head prints only the cell line, no quantity or unit, values parallel Table 1/S8, read-out: HEL); 840 nM in data set [13] (Homo sapiens, SI csv, head prints only the cell line, no quantity or unit, values parallel Table 1/S8, read-out: K562); 630 nM in data set [14] (Homo sapiens, MOLM-13, SI csv, head prints only the cell line, no quantity or unit, values parallel Table 1/S8, read-out: MOLM13). The IC50 stood at 1000 nM in [15] (Homo sapiens, SU-DHL-4, SI csv, head prints only the cell line, no quantity or unit, values parallel Table 1/S8, read-out: SUDHL4); 570 nM in [16] (Homo sapiens, SI csv, head prints only the cell line, no quantity or unit, values parallel Table 1/S8, read-out: DB); 440 nM in data set [17] (Homo sapiens, SU-DHL-6, SI csv, head prints only the cell line, no quantity or unit, values parallel Table 1/S8, read-out: SUDHL6). Besides, the chromatographic logD in data set [3] turned out to be 6. Also, the “XIAP degradation (in words)” value in data set [4] (MM.1S cells, western blot, 0.1 or 1 μM) is listed as “failed to degrade XIAP at 1 μM concentration; also recorded: only marginally degrades XIAP”. Also, the “remaining protein cIAP2” value in data set [7] (MM.1S cells, 16 h, 1 μM) came to 32%.

Regarding VH298 [reference compound], the “IAP degradation profile (in words)” value in [1] is reported as “did not affect the levels of IAPs; also recorded: has no effects on the investigated proteins”. Moreover, the IC50 is greater than 10000 nM in data set [9] (MM cell line, 96 h, TNFα-challenged, read-out: IC50 cell viability RPMI-8826); greater than 10000 nM in [10] (MM cell line, 96 h, TNFα-challenged, read-out: IC50 cell viability JJN3); greater than 10000 nM in data set [11] (MM cell line, 96 h, TNFα-challenged, read-out: IC50 cell viability NCI-H929); greater than 10000 nM in data set [12] (AML cell line, 96 h, TNFα-challenged, read-out: IC50 cell viability HEL); greater than 10000 nM in [13] (AML cell line, 96 h, TNFα-challenged, read-out: IC50 cell viability K562); greater than 10000 nM in data set [14] (AML cell line, 96 h, TNFα-challenged, read-out: IC50 cell viability MOLM13). Moreover, the IC50 was greater than 10000 nM in data set [15] (DLBCL cell line, 96 h, TNFα-challenged, read-out: IC50 cell viability SUDHL4); greater than 10000 nM in [16] (DLBCL cell line, 96 h, TNFα-challenged, read-out: IC50 cell viability DB); greater than 10000 nM in data set [17] (DLBCL cell line, 96 h, TNFα-challenged, read-out: IC50 cell viability SUDHL6). The “%remaining protein cIAP2” value in data set [7] (MM.1S cells, 16 h treatment at 0.1 μM, normalized to loading control and DMSO) worked out at 81%.
